{
  "source": "paper PMC10154249",
  "about": "“Unique progerin C-terminal peptide ameliorates Hutchinson–Gilford progeria syndrome phenotype by rescuing BUBR1” (Nature Aging, 2023)",
  "key": {"[1]": {"tested_on": "skin of Lmna^G609G/G609G mice", "experiment": "Histology of skin (epidermis, subcutaneous fat layers)", "format": "in vivo, mouse", "settings": "13 weeks; for subcutaneous fat layers, Mean / subcutaneous fat layers: 20 mg kg^–1 i.p.", "method": "(§1) For UPCP injection, 14-day-old Lmna^G609G/G609G mice were injected intraperitoneally with either PBS or UPCP (20 mg kg^–1, every other day) and wild-type mice were injected with PBS. […] Bodyweight and lifespan were monitored after UPCP treatment. The survival rate was analyzed by the Kaplan–Meier method. We only included mice that were of sufficient bodyweight at the start of the experiment, typically at least 80% of the average littermate weight of the same sex and genotype. All animals meeting criteria for inclusion were then divided randomly into three groups according to genotype (Lmna^+/+, Lmna^G609G/G609G-Mock and Lmna^G609G/G609G-UPCP).\n(§2) For histological analyses, mice of the indicated genotypes were perfused with PBS, then with 4% paraformaldehyde (PFA). Whole organs were incubated in 4% PFA at 4 °C for 16 h. All samples were paraffin embedded and sectioning by Servicebio. Subsequently, the tissues were deparaffinized and rehydrated before hematoxylin-eosin (HE) or Masson staining or immunohistochemistry (IHC). HE staining was performed using an HE Kit (Absin, catalog no. abs9217), and Masson staining was performed using Masson’s Trichrome Stain Kit (Absin, catalog no. abs9347) according to the manufacturer’s instructions. The thickness of the layers or the areas of fibrosis in the tissues were calculated using ImageJ software by a blinded investigator. For IHC, the sections were completed by the Servicebio. The images were acquired by a microscope (Leica DMi8) and analyzed with Leica Application Suite X v.3.6.0.24 (Leica). For BubR1, cytoplasmic staining in cells was scored on the intensity of staining and the proportion of positive cells by a blinded investigator. The intensity of the staining was graded as 0 (negative, no color), 1 (low positive, light yellow), 2 (positive, brown yellow) or 3 (high positive, brown), and the number of positive cells was graded as 0 (<5%), 1 (5–25%), 2 (25–50%), 3 (51–75%) or 4 (>75%). The final score was defined as staining number score multiplied by staining color score. For lamin B1, p21 or IL-6, the proportion of positive cells was used to quantify the expression of protein in tissues by a blinded investigator."}, "HGADFN003 cells": {"tested_on": "HGADFN003 cells", "experiment": "Ki67 immunofluorescence of HGADFN003 cells", "format": "cell-based, human", "settings": "for Relative percentage of Ki67 positive cells: Fig. 5b, Mock 32, 39, 45, P=0.0148; for Ki67 positive cells: HGADFN003, Extended Data Fig. 10e", "method": "(§3) Immunofluorescence was performed as described previously. Cells were plated on cover slips in 12-well plates, left overnight before the treatment. Cells were fixed in 1% formaldehyde in culture medium for 10 min at 37 °C and permeabilized with 0.2% Triton X-100 in PBS for 10 min at room temperature. Cells were washed twice in PBS and blocked for 1 h with 5% BSA in PBS and then incubated with primary antibodies at 4 °C overnight, washed three times in PBS and incubated with secondary antibodies for 1 h at room temperature. Cell nuclei were counterstained with a 500 nM concentration of 4,6-diamidino-2-phenylindole (DAPI) (Sigma). Images were acquired by a fluorescence microscope (OLYMPUS FV-1000, Carl Zeiss LSM880 or Leica DMi8) and analyzed with software NIS-Elements AR v.5.0.1 (Nikon), FLUOVIEW v.4.2b (OLYMPUS), ZEN v.2.3 SP1 (Carl Zeiss) and Leica Application Suite X v.3.6.0.24 (Leica). Cells were quantified by investigators who were blinded to the identity of the analyzed cell."}, "[2]": {"tested_on": "muscle of Lmna^G609G/G609G mice", "experiment": "Masson staining of muscle (fibrosis)", "format": "in vivo, mouse", "settings": "13 weeks", "method": "as §1, §2"}, "PTBP1 in HGADFN003 cells": {"tested_on": "PTBP1 in HGADFN003 cells", "experiment": "PTBP1 nuclear membrane localization in HGADFN003 cells", "format": "cell-based, human", "settings": "HGADFN003, UPCP", "method": "as §3"}, "[3]": {"tested_on": "BUBR1 in NIH-3T3-progerin cells", "experiment": "Western blot of BUBR1 in progerin-expressing NIH-3T3 cells", "format": "cell-based", "method": "Western blot was performed as previously described. Cells were lysed in 1× Laemmli sample buffer after washing twice in cold PBS without calcium and magnesium. Protein concentrations were determined using the bicinchoninic acid (BCA) protein assay. Protein lysates were subjected to SDS–PAGE, transferred to 0.45-μm pore size hydrophobic PVDF transfer membrane (Merck Millipore), detected with the appropriate primary antibodies coupled with horseradish peroxidase-conjugated corresponding secondary antibodies, and visualized using enhanced chemiluminescence ECL reagent (GE Healthcare). The Tanon 5500 high-definition low-illumination CCD system (Tanon FLI Capture v.1.02) was used to capture chemiluminescent signals."}, "[4]": {"settings": "20 mg kg^–1 i.p. every other day"}},
  "note": "Several values for one entry are separate records, joined by “and”; a condition that tells them apart may be missing. Equal entries are not always repeated.",
  "data": [
    {"substance": "H-YGRKKRRQRRRYNLRSRTVLCGTCGQPADKASASGSGAQSPQNCSIM-OH (cysteines drawn unpaired) [UPCP, unique progerin C-terminal peptide]", "values": [
      {"measurement": "dermal fat loss", "setting": "[1]; [4]", "value": "improved"},
      {"measurement": "epidermal thinning", "setting": "[1]; [4]", "value": "improved"},
      {"measurement": "subcutaneous fat layers, Mean", "setting": "[1]; sample 1, mean of 3 measurements", "value": 0.2193, "unit": "mm"},
      {"measurement": "subcutaneous fat layers", "setting": "[1]; sample 1, measurement 1", "value": 0.2, "unit": "mm"},
      {"measurement": "subcutaneous fat layers", "setting": "[1]; sample 1, measurement 2", "value": 0.243, "unit": "mm"},
      {"measurement": "subcutaneous fat layers", "setting": "[1]; sample 1, measurement 3", "value": 0.215, "unit": "mm"},
      {"measurement": "subcutaneous fat layers, Mean", "setting": "[1]; sample 2, mean of 3 measurements", "value": 0.1593, "unit": "mm"},
      {"measurement": "subcutaneous fat layers", "setting": "[1]; sample 2, measurement 1", "value": 0.146, "unit": "mm"},
      {"measurement": "subcutaneous fat layers", "setting": "[1]; sample 2, measurement 2", "value": 0.185, "unit": "mm"},
      {"measurement": "subcutaneous fat layers", "setting": "[1]; sample 2, measurement 3", "value": 0.147, "unit": "mm"},
      {"measurement": "subcutaneous fat layers, Mean", "setting": "[1]; sample 3, mean of 3 measurements", "value": 0.1467, "unit": "mm"},
      {"measurement": "subcutaneous fat layers", "setting": "[1]; sample 3, measurement 1", "value": 0.174, "unit": "mm"},
      {"measurement": "subcutaneous fat layers", "setting": "[1]; sample 3, measurement 2", "value": 0.153, "unit": "mm"},
      {"measurement": "subcutaneous fat layers", "setting": "[1]; sample 3, measurement 3", "value": 0.113, "unit": "mm"},
      {"measurement": "Relative percentage of Ki67 positive cells", "setting": "HGADFN003 cells; HGADFN003, replicate 1", "value": 54, "unit": "%"},
      {"measurement": "Relative percentage of Ki67 positive cells", "setting": "HGADFN003 cells; HGADFN003, replicate 2", "value": 62, "unit": "%"},
      {"measurement": "Relative percentage of Ki67 positive cells", "setting": "HGADFN003 cells; HGADFN003, replicate 3", "value": 68, "unit": "%"},
      {"measurement": "Ki67 expression (FTI-277/UPCP comparison, words)", "setting": "HGADFN003 cells; HGADFN003", "value": "increasing expression of BUBR1, CyclinA2 and Ki67"},
      {"measurement": "Ki67 positive cells", "setting": "HGADFN003 cells; replicate 1", "value": 65, "unit": "%"},
      {"measurement": "Ki67 positive cells", "setting": "HGADFN003 cells; replicate 2", "value": 55, "unit": "%"},
      {"measurement": "Ki67 positive cells", "setting": "HGADFN003 cells; replicate 3", "value": 72, "unit": "%"},
      {"measurement": "Ki67 positive staining", "setting": "HGADFN003 cells; HGPS cells", "value": "increased Ki67 positive staining"},
      {"measurement": "fibrosis, muscle", "setting": "[2]; [4]", "value": "decrease of fibrosis in the muscle"},
      {"measurement": "fibrosis area/ total area, muscle", "setting": "[2]; 20 mg kg^–1 i.p., replicate 1", "value": "0.003895 and 0.3895%"},
      {"measurement": "fibrosis area, muscle", "setting": "[2]; 20 mg kg^–1 i.p., replicate 1, total area 340.18", "value": 1.325},
      {"measurement": "fibrosis area, muscle", "setting": "[2]; 20 mg kg^–1 i.p., replicate 2, total area 353.151", "value": 1.196},
      {"measurement": "fibrosis area, muscle", "setting": "[2]; 20 mg kg^–1 i.p., replicate 3, total area 365.081", "value": 2.133},
      {"measurement": "PTBP1 nuclear membrane location cells", "setting": "PTBP1 in HGADFN003 cells; replicate 1", "value": 45, "unit": "%"},
      {"measurement": "PTBP1 nuclear membrane location cells", "setting": "PTBP1 in HGADFN003 cells; replicate 2", "value": 39, "unit": "%"},
      {"measurement": "PTBP1 nuclear membrane location cells", "setting": "PTBP1 in HGADFN003 cells; replicate 3", "value": 35, "unit": "%"},
      {"measurement": "BUBR1 abundance", "setting": "[3]", "value": "upregulated BUBR1"}
    ]}
  ]
}
